We go through 12 compounds from patent US6548042B2, “Bis-phosphonate compounds” (priority 2000, dated 2003).

Where two headings read alike, the source gives them in different places.

A short description of data set [1]: Biodistribution of i.v. administered radioiodinated compounds in balb/c mice.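 As to all read-outs here: healthy mice given radioiodinated bisphosphonic acids, with randomly chosen groups of three animals per time point.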 Conditions: for Bone-seeking properties: mouse, in vivo; for Discomfort or toxicity after administration of samples: single bolus tail vein injection, 100 μl.
Description: Mice. Samples of 100 μl containing 50,100, 400, 140 or 45 KBq of 31a, 34a, 46a, 67a or 72a, respectively, were injected into the tail veins as single bolus injections. […] At 0.5 h, 2 h, 5 h and 24 h postinjection times the animals were sacrificed; except in the case of the phosphate phosphonate derivative 31 were the animals were sacrificed 0.25 h, 2 h, 5 h and 24 h postinjection. Randomly selected groups of three animals were used at each time point. The whole animals were weighed and dissected. The excised organs, i.e. femur, skull, blood, heart, lung, liver, kidney, spleen, stomach, large intestine and small intestine, were weighed separately prior to counting.
Radioactivity measurements of the labelled compounds were carried out with a liquid scintillation counter (Beckman LS 6500, Beckman Instruments, USA) or with a Capintec CRC-7R radioisotope calibrator (Capintec, USA). The radioactivity level of the excised organs was measured with an automated gamma counter (LKB Wallac 1282, Turku, Finland).
Data set [2] concerns OHS cells. Conditions: 60 days; ^153Sm-EDTMP 800 MBq/kg, ^89Sr 20 MBq/kg, ifosfamide 150 mg/kg; cited from earlier work.
Data set [3] has as its system MT-1 cells. As to conditions: repeated treatments (days 7 and 14); cited from earlier work.
For data set [4] the following is noted: Swiss Webster mice, 20-25 g, 47 h; cited from earlier work.
The conditions of data set [5]: Sprague-Dawley rats, 220 g, 24 h; cited from earlier work.
For data set [6] the following is noted: balb/c mice, 19-22 g, cited from earlier work.

As to `O=P(O)(O)C(Cc1ccccc1)P(=O)(O)O` [2h, phenylethylidenebisphosphonic acid], the Uptake in femur in data set [1] (2 h postinjection (peak), i.v.) is 21±4 % ID/g; in data set [1] (24 h postinjection, i.v.), 15±5 % ID/g.
`O=P(O)(O)C(Cc1cccc([125I])c1)P(=O)(O)O` [34a, m-[^125I and ^131I]-iodophenylethylidene-1,1-bisphosphonic Acid] had an Uptake in femur in data set [1] (0.5 h (30 min) postinjection, i.v.) of 18.8±0.51 % ID/g. In addition, in data set [1] (0.5 h postinjection, i.v.), the Activity in blood was found to be 2.22±0.31 % ID/g, the Uptake in kidneys came out at 8.23±6.39 % ID/g and the Uptake in skull came out at 10.28±2.58 % ID/g. Also, the “Femur to soft tissue ratio” value in data set [1] (24 h, soft tissue with highest uptake) was over 14. In data set [1] (24 h postinjection, i.v.), the Uptake in femur is given as 15.25±4.89 % ID/g, the Uptake in kidneys is on record as 1.06±0.10 % ID/g and the Uptake in skull is on record as 7.13±2.73 % ID/g. Also, in data set [1], the Bone-seeking properties result was “potent bone-seekers” and the “Discomfort or toxicity after administration of samples” value (“Discomfort or toxicity” for short) is “No sign of discomfort or toxicity was observed”.
In data set [1] (24 h postinjection, i.v.), `O=P(O)(O)C(NCCc1cccc([131I])c1)P(=O)(O)O` [67a, N-(m-[^131I]-iodophenylethyl)aminomethylene-bisphosphonic acid] displayed an Uptake in femur of 1.39±0.43 % ID/g, an Uptake in liver of 5.57±0.79 % ID/g, an Uptake in skull of 0.91±0.08 % ID/g and an Uptake in spleen of 2.49±0.37 % ID/g. Also, in data set [1], the Bone-seeking properties entry is “lack bone seeking properties” and the “Discomfort or toxicity” value is on record as “No sign of discomfort or toxicity was observed”.
In the case of `O=P(O)(O)C(CCc1cccc([131I])c1)P(=O)(O)O` [72a, 3-(m-iodo-[^131I and ^125I]-phenyl)propylidene-1,1-bisphosphonic acid], in data set [1] (24 h postinjection, i.v.), the Uptake in femur is recorded as 8.84±0.97 % ID/g, the Uptake in kidneys was determined as 0.85±0.08 % ID/g, the Uptake in liver worked out at 0.35±0.06 % ID/g and the Uptake in skull was determined as 10.36±4.26 % ID/g. In data set [1], the Bone-seeking properties entry was “potent bone-seekers” and the “Discomfort or toxicity” value is listed as “No sign of discomfort or toxicity was observed”.
In the case of `[89Sr]` [^89Sr], in data set [2], the “Survival rate / disease-free rats” value is recorded as 20% and the “Surviving / disease-free rats of rats treated” value (shortened to “Surviving / disease-free rats”) is recorded as 2 of 10.
With `N.N.[Cl][Pt][Cl]` [cisplatin], in data set [3], the “Effect on the metastatic growth” value is on record as “nor did they have any significant effect on the metastatic growth” and the “Survival after repeated treatments” value is “have not improved survival”.
Regarding `O=P(O)(O)C(O)(c1cccc(I)c1)P(=O)(O)O` [compound 2], in data set [4], the “Ratio between uptake in femur and stomach” value is 1.7 (femur/stomach, Swiss Webster; the “Uptake in femur expressed as % gram dose per gram tissue” value (shortened to “Uptake … as % gram dose per gram tissue”) is 299 (Swiss Webster mice, 20-25 g, 47 h) % gram dose per gram tissue; the Uptake in stomach is 7.65 ± 0.02 % ID/g; the “Uptake in the thyroid” value is listed as 0.414 ± 0.147 % injected dose/organ.
For the compound `O=P(O)(O)C(c1ccc(O)c(I)c1)P(=O)(O)O` [compound 3], in data set [5], the “Ratio between uptake in femur and kidney” value is on record as 1.5 (femur/kidney, Sprague-Dawley; the “Uptake … as % gram dose per gram tissue” value is listed as 438 (Sprague-Dawley rats, 220 g, 24 h) % gram dose per gram tissue; the “Uptake in the thyroid” value is on record as 3829 (% ID/g,.
As for `O=C(NCCC(O)(P(=O)(O)O)P(=O)(O)O)c1cccc(I)c1` [compound 4], the “Uptake … as % gram dose per gram tissue” value in data set [6] (2 h) was 702 (balb/c mice, 19-22 g, 2 h) % gram dose per gram tissue. In addition, in data set [6] (24 h), the “Ratio between uptake in femur and spleen” value is 3.2 (femur/spleen, balb/c mice,; the Uptake in stomach is on record as 0.93 ± 0.95 % ID/g; the “Uptake in the thyroid” value is listed as 0.45 ± 0.36 % injected dose/organ.
Turning to `COc1cccc2c1C(=O)c1c(O)c3c(c(O)c1C2=O)C[C@@](O)(C(=O)CO)C[C@@H]3O[C@H]1C[C@H](N)[C@H](O)[C@H](C)O1` [doxorubicin], in data set [3], the “Effect on the metastatic growth” value is “nor did they have any significant effect on the metastatic growth” and the “Survival after repeated treatments” value is “have not improved survival”.
As for `O=P1(NCCCl)OCCCN1CCCl` (stereo not drawn) [ifosfamide], in data set [2], the “Survival rate / disease-free rats” value is 20% and the “Surviving / disease-free rats” value is given as 3 of 15.
As to ^153Sm-EDTMP, in data set [2], the “Survival rate / disease-free rats” value is on record as 62% and the “Surviving / disease-free rats” value is listed as 8/13.
